For twelve compounds, pest or weed control results are on record in patent US9549556B2, “Macrocyclic picolinamides as fungicides” (DOW AGROSCIENCES LLC, priority 2013, dated 2017).

Read-outs that look alike come from different tables or passages of the source. A value given as a limit tells only on which side of the number the result lay.

The test system of one assay is Puccinia triticina. Briefly: Wheat brown rust (PUCCRT) disease control on wheat seedlings. Format: in vivo. The note with it: read-out: PUCCRT disease control rating (% Control); for pest or weed control at 100 ppm: high volume application; for pest or weed control at 121.5 g/ha: 121.5 g/H, low volume (track spray) application.
The subject of another assay is Septoria tritici. Briefly: Leaf blotch of wheat (SEPTTR) disease control on wheat seedlings. Format: in vivo, Mycosphaerella graminicola (anamorph Septoria tritici). As to conditions: Zymoseptoria tritici, read-out: SEPTTR disease control rating (% Control); for pest or weed control at 100 ppm: high volume application; for pest or weed control at 121.5 g/ha: 121.5 g/H, low volume (track spray) application. Here is the method: Evaluation of Fungicidal Activity: Leaf Blotch of Wheat (Mycosphaerella graminicola; Anamorph: Septoria tritici; Bayer Code […]) Technical grades of materials were dissolved in acetone, which were then mixed with nine volumes of water containing 110 ppm Triton X-100. The fungicide solutions were applied onto wheat seedlings using an automated booth sprayer to run-off. All sprayed plants were allowed to air dry prior to further handling. All fungicides were evaluated using the aforementioned method for their activity vs. all target diseases. Wheat leaf blotch and brown rust activity were also evaluated using track spray applications, in which case the fungicides were formulated as EC formulations, containing 0.1% Trycol 5941 in the spray solutions. Wheat plants (variety Yuma) were grown from seed in a greenhouse in 50% mineral soil/50% soil-less Metro mix until the first leaf was fully emerged, with 7-10 seedlings per pot. These plants were inoculated with an aqueous spore suspension of Septoria tritici either prior to or after fungicide treatments. After inoculation the plants were kept in 100% relative humidity (one day in a dark dew chamber followed by two to three days in a lighted dew chamber at 20° C.) to permit spores to germinate and infect the leaf. The plants were then transferred to a greenhouse set at 20° C. for disease to develop. When disease symptoms were fully expressed on the 1st leaves of untreated plants, infection levels were assessed on a scale of 0 to 100 percent disease severity. Percent disease control was calculated using the ratio of disease severity on treated plants relative to untreated plants.

`CCCC[C@H]1[C@H](C)OC(=O)[C@@H](NC(=O)c2nccc(OC)c2O)COC[C@@H]1OCC1CC1` [Compound 3]: the pest or weed control at 100 ppm with Puccinia triticina (24 h, 1DP (1 Day Protectant)) is over 70%; with Puccinia triticina (72 h, 3DC (3 Day Curative)) it was over 70%; with Septoria tritici (24 h, 1DP (1 Day Protectant)), over 70%; in the assay on Septoria tritici (72 h, 3DC (3 Day Curative)), under 70%.
With `CCCO[C@H]1COC[C@H](NC(=O)c2nccc(OC)c2OCOC(=O)COCC)C(=O)O[C@@H](C)[C@@H]1Cc1ccc(F)cc1` [Compound 8], the pest or weed control at 121.5 g/ha is over 70% in the assay on Puccinia triticina (24 h, 1DP (1 Day Protectant)); over 70% in the assay with Puccinia triticina (72 h, 3DC (3 Day Curative)); over 70% in the assay on Septoria tritici (24 h, 1DP (1 Day Protectant)); over 70% in the assay on Septoria tritici (72 h, 3DC (3 Day Curative)).
As to `COc1ccnc(C(=O)N[C@H]2COC[C@H](Oc3ccc(C)cc3)[C@@H](Cc3ccc(F)cc3)[C@H](C)OC2=O)c1OC(C)=O` [Compound 10], the pest or weed control at 121.5 g/ha was over 70% in the assay with Puccinia triticina (24 h, 1DP (1 Day Protectant)); under 70% in the assay with Puccinia triticina (72 h, 3DC (3 Day Curative)); over 70% with Septoria tritici (24 h, 1DP (1 Day Protectant)); over 70% in the assay on Septoria tritici (72 h, 3DC (3 Day Curative)).
Consider `COc1ccnc(C(=O)N[C@H]2COC[C@H](OCc3ccccc3)[C@@H](CCC(C)C)[C@H](C)OC2=O)c1OCOC(C)=O` [Compound 14], for which the pest or weed control at 121.5 g/ha with Puccinia triticina (24 h, 1DP (1 Day Protectant)) is over 70%; with Puccinia triticina (72 h, 3DC (3 Day Curative)) it was over 70%; in the assay on Septoria tritici (24 h, 1DP (1 Day Protectant)), over 70%; in the assay on Septoria tritici (72 h, 3DC (3 Day Curative)), over 70%.
Regarding `CCCO[C@H]1COC[C@H](NC(=O)c2nccc(OC)c2O)C(=O)O[C@@H](C)[C@@H]1Cc1ccc(F)cc1` [Compound 17], the pest or weed control at 100 ppm with Puccinia triticina (24 h, 1DP (1 Day Protectant)) is over 70%; in the assay on Puccinia triticina (72 h, 3DC (3 Day Curative)), over 70%; in the assay on Septoria tritici (24 h, 1DP (1 Day Protectant)) it was over 70%; with Septoria tritici (72 h, 3DC (3 Day Curative)) it was over 70%.
Turning to `CCCO[C@H]1COC[C@H](NC(=O)c2nccc(OC)c2OCOC(C)=O)C(=O)O[C@@H](C)[C@@H]1CCC(C)C` [Compound 18, ((2-(((3S,7R,8S,9S)-8-isopentyl-9-methyl-2-oxo-7-propoxy-1,5-dioxonan-3-yl)carbamoyl)-4-methoxypyridin-3-yl)oxy)methyl acetate], the pest or weed control at 121.5 g/ha in the assay on Puccinia triticina (24 h, 1DP (1 Day Protectant)) is over 70%; in the assay on Puccinia triticina (72 h, 3DC (3 Day Curative)), over 70%; in the assay with Septoria tritici (24 h, 1DP (1 Day Protectant)), under 70%; with Septoria tritici (72 h, 3DC (3 Day Curative)), over 70%.
`CCCO[C@H]1COC[C@H](NC(=O)c2nccc(OC)c2OC(C)=O)C(=O)O[C@@H](C)[C@@H]1Cc1ccc(F)cc1` [Compound 20]: the pest or weed control at 121.5 g/ha in the assay on Puccinia triticina (24 h, 1DP (1 Day Protectant)) was over 70%; with Puccinia triticina (72 h, 3DC (3 Day Curative)), over 70%; with Septoria tritici (24 h, 1DP (1 Day Protectant)) it was over 70%; in the assay on Septoria tritici (72 h, 3DC (3 Day Curative)), over 70%.
Take `COc1ccnc(C(=O)N[C@H]2COC[C@H](Oc3ccc(C)cc3)[C@@H](Cc3ccc(F)cc3)[C@H](C)OC2=O)c1O` [Compound 23]: the pest or weed control at 100 ppm in the assay on Puccinia triticina (24 h, 1DP (1 Day Protectant)) was over 70%; in the assay with Puccinia triticina (72 h, 3DC (3 Day Curative)), under 70%; with Septoria tritici (24 h, 1DP (1 Day Protectant)) it was over 70%; with Septoria tritici (72 h, 3DC (3 Day Curative)), under 70%.
Take `COc1ccnc(C(=O)N[C@H]2COC[C@H](OCC3CC3)[C@@H](Cc3ccc(F)cc3)[C@H](C)OC2=O)c1O` [Compound 24]: the pest or weed control at 100 ppm in the assay on Puccinia triticina (24 h, 1DP (1 Day Protectant)) was over 70%; with Puccinia triticina (72 h, 3DC (3 Day Curative)) it was over 70%; in the assay on Septoria tritici (24 h, 1DP (1 Day Protectant)), over 70%; with Septoria tritici (72 h, 3DC (3 Day Curative)) it was over 70%.
Turning to `COc1ccnc(C(=O)N[C@H]2COC[C@H](OC(=O)C3CC3)[C@@H](Cc3ccc(F)cc3)[C@H](C)OC2=O)c1O` [Compound 25], the pest or weed control at 100 ppm is over 70% in the assay with Puccinia triticina (24 h, 1DP (1 Day Protectant)); over 70% with Puccinia triticina (72 h, 3DC (3 Day Curative)); over 70% in the assay on Septoria tritici (24 h, 1DP (1 Day Protectant)); over 70% in the assay on Septoria tritici (72 h, 3DC (3 Day Curative)).
As to `CCOCC(=O)OCOc1c(OC)ccnc1C(=O)N[C@H]1COC[C@H](OCOCc2ccccc2)[C@@H](Cc2ccccc2)[C@H](C)OC1=O` [Compound 26], the pest or weed control at 100 ppm in the assay with Puccinia triticina (24 h, 1DP (1 Day Protectant)) was over 70%; in the assay with Puccinia triticina (72 h, 3DC (3 Day Curative)), over 70%; in the assay on Septoria tritici (24 h, 1DP (1 Day Protectant)), over 70%; in the assay with Septoria tritici (72 h, 3DC (3 Day Curative)), over 70%.
Regarding `COc1ccnc(C(=O)N[C@H]2COC[C@H](OCC3CC3)[C@@H](Cc3ccc(F)cc3)[C@H](C)OC2=O)c1OC(C)=O` [Compound 28], the pest or weed control at 121.5 g/ha was over 70% with Puccinia triticina (24 h, 1DP (1 Day Protectant)); over 70% in the assay with Puccinia triticina (72 h, 3DC (3 Day Curative)); over 70% with Septoria tritici (24 h, 1DP (1 Day Protectant)); over 70% in the assay with Septoria tritici (72 h, 3DC (3 Day Curative)).
